Source: US7531660B2, “1-[[1-[(2-amino-6-methyl-4-pyridinyl)methyl]-4-fluoro-4-piperidinyl]carbonyl]-4-[2-(2-pyridinyl)-3H-imidazo[4,5-B]pyridin-3-YL]piperidine and methods of use thereof” (Schering Corporation, priority 2005, dated 2009)
Several values for one entry are separate records, joined by “and”; a condition that tells them apart may be missing. Identical values can stand only once. Like-named read-outs stand apart in the source and are kept apart here.

Experiments:
[1] = biological target: T1, recombinant human histamine H3 receptor (Homo sapiens, UniProt Q9Y5N1); test: Human H3-receptor binding assay ([3H]N-alpha-methylhistamine, HEK-293 membranes)
T1 construct: expressed in transfected cells
T1 sequence (Q9Y5N1 whole entry): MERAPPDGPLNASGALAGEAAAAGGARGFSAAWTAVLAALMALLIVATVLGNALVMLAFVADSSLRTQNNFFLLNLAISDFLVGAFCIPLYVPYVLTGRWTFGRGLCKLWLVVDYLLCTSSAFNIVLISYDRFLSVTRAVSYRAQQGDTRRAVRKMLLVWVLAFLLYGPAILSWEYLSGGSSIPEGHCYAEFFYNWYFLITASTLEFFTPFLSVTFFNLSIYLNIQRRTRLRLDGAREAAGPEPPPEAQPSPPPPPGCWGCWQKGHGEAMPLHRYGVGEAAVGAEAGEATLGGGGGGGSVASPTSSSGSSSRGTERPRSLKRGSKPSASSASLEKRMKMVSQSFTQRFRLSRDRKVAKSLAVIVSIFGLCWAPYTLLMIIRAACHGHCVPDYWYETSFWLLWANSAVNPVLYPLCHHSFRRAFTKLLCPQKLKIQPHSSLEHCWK
Procedure: Binding assays were performed with membranes from HEK-293 cells stably expressing recombinant human histamine H3 receptor. Each 200 μL assay volume contained 1.0 nM [^3H]N^−α-methylhistamine, test compound, and 3 μg of membrane protein in 50 mM Tris-HCl, pH 7.4. Total binding was determined in the absence of compound and nonspecific binding in the presence of 10^−5 M thioperamide. Material was incubated 30 minutes at 30° C. then filtered on GF/B filters. These were rinsed three times with cold buffer, then dried, impregnated with Meltilex scintillation counting medium, and counted. Ki values were determined from standard curve-fitting procedures. […] Values are averages from two assays with duplicate determinations in each. Errors are expressed as the range of these values from the mean.

[2] = system: mice made obese with a high fat diet; test: Diet-induced obesity in mice (weight gain); assay type: in vivo; details: DIO mice, oral once a day, 0.3 mg/kg in 20% aqueous HPBCD
Procedure: Diet-induced obesity (DIO) was determined according to the following procedure. Young mice were maintained in individual cages at 22° C. on a 12:12 hr light/dark cycle. Mice were made obese with a high fat diet. Mice were orally gavaged daily with vehicle or compound; body weight and food intake were monitored daily.

Canine H3 Receptors = Canine H3 Receptors (Canis lupus familiaris, UniProt A0A8I3P226); test: Binding to canine H3 receptors, brain P2 membranes; details: Dog brain membranes, N=2, mean ± SEM
Chain of Canine H3 Receptors (A0A8I3P226 1-445): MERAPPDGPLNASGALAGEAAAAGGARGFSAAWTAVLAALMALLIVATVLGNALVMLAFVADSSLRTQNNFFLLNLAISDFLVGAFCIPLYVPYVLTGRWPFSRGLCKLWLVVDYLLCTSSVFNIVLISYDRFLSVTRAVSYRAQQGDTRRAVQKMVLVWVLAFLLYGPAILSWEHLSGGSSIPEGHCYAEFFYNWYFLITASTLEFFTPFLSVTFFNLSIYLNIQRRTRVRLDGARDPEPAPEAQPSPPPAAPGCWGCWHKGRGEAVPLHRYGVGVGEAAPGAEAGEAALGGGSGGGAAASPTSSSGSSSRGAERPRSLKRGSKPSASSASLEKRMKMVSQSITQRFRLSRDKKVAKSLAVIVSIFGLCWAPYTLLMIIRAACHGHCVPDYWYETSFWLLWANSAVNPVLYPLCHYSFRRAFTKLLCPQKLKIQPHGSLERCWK
Procedure: (§1) Binding assays were performed with membranes from a P2 pellet preparation of brain from each species as described in West et al., Mol Pharmacol 38:610-613 (1990). Frozen brains were thawed at room temperature and then disrupted in ten volumes (w:v) of ice-cold 50 mM Tris-HCl, pH 7.4, with a Polytron. Homogenates were centrifuged at 1000×g and supernatants then centrifuged at 50,000×g. Pellets from the second centrifugation were resuspended in buffer, sedimented again at 50,000×g, and stored frozen at −80° C.
(§2) Each 200 μL assay volume contained 1.0 nM [^3H]N^−α-methylhlstamine, test compound, and 300 μg of membrane protein in 50 mM Tris-HCl, pH 7.4. Total binding was determined in the absence of compound and nonspecific binding in the presence of 10^−5 M thioperamide. Assay mixtures are incubated 30 minutes at 30° C. then filtered on CF/B filters. Filters were rinsed three times with cold buffer, dried, impregnated with Meltilex scintillation counting medium, and counted. IC50 values were determined using standard curve-fitting procedures and Ki values were calculated from these using the method set forth in Cheng et al., Biochem Pharmacol 22:3099-3108 (1973). Each competition binding assay comprised ten concentrations of compound, each concentration assayed in duplicate. Binding data obtained for the Compound of Formula I to canine and feline H3 receptors are set forth below in Table 1. […]

[3] = Canine pharmacokinetics after oral and i.v. administration; assay type: in vivo, beagle dogs; details: fasted dogs; for MRT: read-out: Mean Residence Time (MRT)
Procedure: The Compound of Formula I was administered at a dose of 3 mg/kg to fasted beagle dogs orally (PO) at […] (0.4% MC formulation) and i.v. at […] (captisol, pH 5.1 fornulation). Blood samples were taken at multiple time intervals for 48 hours post dosing. The blood samples were converted to plasma and stored at −20° C. until being assayed for the Compound of Formula I using an HPLC-API-MS/MS procedure. The pharmacokinctic parameters that were calculated from thiis study are sumarized in Table 2 below.

Feline H3 Receptors = Feline H3 Receptors (Felis catus, UniProt A0ABI7WGM6); test: Binding to feline H3 receptors, brain P2 membranes; details: Cat brain membranes, N=3, mean ± SEM
Chain of Feline H3 Receptors (A0ABI7WGM6 entry or part of it): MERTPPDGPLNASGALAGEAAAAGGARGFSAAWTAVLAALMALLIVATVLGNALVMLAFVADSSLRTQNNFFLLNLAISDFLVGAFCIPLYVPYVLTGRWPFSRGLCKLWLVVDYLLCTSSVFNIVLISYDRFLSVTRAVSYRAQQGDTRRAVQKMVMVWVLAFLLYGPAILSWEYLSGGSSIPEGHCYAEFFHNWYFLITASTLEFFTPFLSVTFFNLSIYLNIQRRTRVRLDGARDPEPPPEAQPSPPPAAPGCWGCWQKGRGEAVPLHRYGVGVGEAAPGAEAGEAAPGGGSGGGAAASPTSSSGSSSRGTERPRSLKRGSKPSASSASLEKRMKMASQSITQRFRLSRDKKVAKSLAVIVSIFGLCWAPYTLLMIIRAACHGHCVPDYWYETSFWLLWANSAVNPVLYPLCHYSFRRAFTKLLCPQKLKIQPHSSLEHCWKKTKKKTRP
Procedure: as §1, §2

[4] = Oral tolerance in dogs with plasma level analysis; assay type: in vivo, beagle dogs; details: for Plasma level at Day 0: prior to the study; for concentration at 24 h / concentration at 7 day: beagle, dog, plasma, po; for concentration at 24 h / concentration at 7 day / Plasma level at Day 1 / Plasma level at Day 7: 5 mg/kg, 5 mg/kg oral daily; for concentration at 24 h / Plasma level at Day 1: 24 hours after first dose; for concentration at 24 h: read-out: Plasma level at Day 1; for concentration at 7 day / Plasma level at Day 7: end of study
Procedure: Male and female beagle dogs (N=6, age≧4 months, each having a body weight of from 10-15 kg) were used in this study. The treated animals (N=4) were orally administered the Compound of formula I once a day for 7 days at a daily dosage of 5 mg/kg (5 times proposed efficacy dose). The control animals (N=2) were orally administered vehicle only. Animals were fasted for 8 hours prior to each administration of the Compound of formula I or vehicle and were fasted for 2 hours after each administration of the Compound of formula I or vehicle. Blood samples were collected before, during, and after the treatment period for pharmacokinetic analysis.
Approximately 4.0±1 mL of blood was drawn from each animal at prior to the study (day 0), at 24 hours after the first dose (day 1), and at the end of the study (day 7), using jugular venipuncture and immediately placed into separated Vacutainer® tubes containing EDTA anticoagulant, and processed for plasma. The plasma was aspirated and divided into two aliquots (≧0.3 ml each) and each aliquot was frozen at −70° C. or less.
Collected blood plasma samples were analyzed for the concentration of the Compound of formula I using the following analytical method: […]
D: Sample Preparation Procedure: • 1) Pipette 40 μL of sample into a 1 mL 96-well plate. • 2) Add 150 μL of internal standard solution to each well. • 3) Gently vortex plate for 1 minute. • 4) Centrifuge samples for 10 minutes (Eppendorf 5810 Centifuge). • 5) Pipette 100 μL of supernatant into a 350 μL 96-well plate. Results

[5] = system: mice having diet-induced obesity; test: Liver triglycerides in obese mice; assay type: in vivo; details: DIO mice, 10 mg/kg/day gavage for 12 days
Procedure: The Compound of Formula I was administered daily for 12 days via gavage to mice having diet-induced obesity at a dosage of 10 mg/kg/day (vehicle 0.4% aqueous methylcellulose (MC); see procedure for diet-induced obesity described above).
On day 12, the animals were sacrificed, their livers were collected, and liver pieces were extracted according to the procedure of Folch et al., J. Biol. Chem. 226:497-509 (1957). The collected liver tissue was then homogenized in 6 mL of chloroform:methanol (2:1), 4 mL water was added to the homogenized mixture and the resulting solution was vortexed, then centrifuged at 1000×g for 30 minutes. The chloroform layer was removed and dried under nitrogen to provide the extracted lipids, which were redissolved in 1 mL chloroform and aliquots were transferred into HPLC sample vials. […]
Chromatography was performed using an isocratic mobile phase containing 98.8% hexane and 1.2% isopropanol at a flow rate of 2 mL/min through a Zorbax Sil (4.6×25 cm) silica column (Agilent Technologies #880952-701). Lipids in a 5 μL injection were detected by absorbance at 206 nm and quantitated by computer integration (System Gold, Beckman) of elution profiles. Cholesterol, cholesteryl ester, and triglyceride concentrations were determined by comparison to standard curves using Non-polar Lipid Mix-B, Matreya, Inc., Pleasant Gap, Pa. cat. #1130.

[6] = beagle, dog, plasma, IV 3 mg/kg
[7] = beagle, dog, plasma, oral 3 mg/kg
[8] = beagle, dog, plasma, oral 3 mg/kg, 0.4% MC
[9] = both sexes, Mean of 4 treated dogs
[10] = dogs, daily oral 5 mg/kg for 7 days
[11] = male, male dog, individual animal

For Cc1cc(CN2CCC(F)(C(=O)N3CCC(n4c(-c5ccccn5)nc5cccnc54)CC3)CC2)cc(N)n1 [Compound of Formula I, 1-[[1-[(2-amino-6-methyl-4-pyridinyl)methyl]-4-fluoro-4-piperidinyl]carbonyl]-4-[2-(2-pyridinyl)-3H-imidazo[4,5-b]pyridin-3-yl]piperidine], the Ki [1] was 4.6 nM, the “inhibition of weight gain” value [2] was “statistically significant inhibition of weight gain” and the Ki (Canine H3 Receptors) was 1.3 ± 0.2 nM. For the same compound, the clearance [3, 6] was 1.7 mL/min/kg, the half-life [3, 6] was 9.5 h and the AUC(0-inf) ([3]; beagle, dog, plasma, IV 3 mg/kg, captisol pH 5.1) was 32800 ng·h/mL. It also gave an MRT [3, 6] of 10.9 h, a Vd ([3]; beagle, dog, plasma, IV 3 mg/kg, read-out: Vd (ss)) of 1.1 L/kg and a Cmax [3, 7] of 910 ng/mL. It also gave an AUC(0-inf) [3, 8] of 18900 ng·h/mL, a bioavailability [3, 8] of 58% and an MRT [3, 7] of 18.6 h. For the same compound, the “Mean Absorption Time (MAT) (MRTpo − MRTiv)” value ([3]; oral 3 mg/kg) was 7.8 h, the Ki (Feline H3 Receptors) was 4.9 ± 0.6 nM and the “Plasma level at Day 0” value ([4]; Mean of 4 treated dogs) was 1.70 ng/mL. The concentration at 24 h [4, 9] was 257 ng/mL, the concentration at 7 day [4, 9] was 422 ng/mL and the accumulation in plasma ([4]; dogs, 7 days daily oral 5 mg/kg) was “accumulated 7 days after daily oral administration”. The adverse events [4, 10] was “No adverse events were observed”, the tolerability [4, 10] was “well tolerated” and the “Plasma level at Day 1” value ([4]; female dog, individual animal) was 148 ng/mL and 604 ng/mL. For the same compound, the “Plasma level at Day 7” value ([4]; female dog, individual animal) was 680 ng/mL, the “Plasma level at Day 0” value ([4]; female dog, individual animal) was 0 ng/mL and the concentration at 7 day ([4]; female, female dog, individual animal) was 540 ng/mL. For the same compound, the “Plasma level at Day 1” value ([4]; male dog, individual animal) was 157 ng/mL, the “Plasma level at Day 7” value ([4]; male dog, individual animal) was 207 ng/mL and the “Plasma level at Day 0” value ([4]; male dog, individual animal) was 0 ng/mL and 6.8 ng/mL. For the same compound, the concentration at 24 h [4, 11] was 118 ng/mL, the concentration at 7 day [4, 11] was 263 ng/mL and the “reduction in liver triglyceride content relative to control” value ([5]; 0.4% MC) was 52%. The liver triglyceride content ([5]; compound treated group, average) was 861±87 mg/liver.
